From patent publication US9458123B2, “Methods, pharmaceutical compositions, therapeutic systems, and compounds for treating B cell malignancies” (University of Rochester, priority 2012, dated 2016)

Legend:
[1] = biological target: T1, UbcH5c (Homo sapiens, UniProt P61077); assay: In vitro UbcH5c~Ub thioester conjugate formation; type: biochemical
T1 construct: purchased Boston Biochem Inc E2-627
Experimental: (§1) Purified GST or GST-Ubc13 fusion proteins were incubated with the cell extract prepared from OCI-Ly10 cells with or without the presence of NSC697923 as indicated. The amounts of Uev1A protein associated with GST or GST-Ubc13 were analyzed by western blotting. The first lane was loaded with 8% of the input cell lysate. […] The assay was carried out as described in FIG. 4A, except that the loading buffer for SDS-PAGE gel contains no reducing agent, unless otherwise specified, and the reaction was analyzed by western blotting with a Ubc13-specific antibody. […] The assay was carried out as in FIG. 5B, except that UbcHSc, instead of Ubc13 and Uev1A, was used in the ubiquitination reaction and that a UbcHSc antibody was used for western blot analysis.
For detecting the E2-ubiquitin (Ubc13˜Ub or UbcH5c˜Ub) thioester conjugates, the reactions were carried out as described above without GST-TRAF6. The reactions were terminated with the SDS-sample buffer without a reducing agent unless specified. The products were analyzed by western blotting with an anti-Ubc13 or anti-UbcHSc antibody as indicated.

[2] = tested on: IκBα phosphorylation by LPS in MEF cells; assay: IκBα phosphorylation after LPS, western blot; type: cell-based, Mouse; conditions: LPS 1.5 μg/ml
Experimental: SUDHL-6, RAW264.7, and MEF cells were treated with NSC697923 or DMSO (control) for 1 hour before being stimulated with the PMA (100 ng/ml), RANKL (15 ng/ml), and LPS (1.5 μg/ml) for the indicated times. The levels of IκBα phosphorylation in the indicated samples were assessed by western blotting.
HEK293T cells were grown in DMEM supplemented with 10% fetal bovine serum (FBS). Diffuse large B cell lymphoma (DLBCL) cells SUDHL-6, OCI-Ly3, OCI-Ly7, OCLLy10, and HBL-1 were cultured as previously described (Davis et al., “Constitutive Nuclear Factor KappaB Activity is Required for Survival of Activated B Cell-Like Diffuse Large B Cell Lymphoma Cells,” J. Exp. Med. 194:1861-1874 (2001) and Kim et al., “Protein Kinase C-Associated Kinase is Required for NF-kappaB Signaling and Survival in Diffuse Large B-Cell Lymphoma Cells,” Blood 111:1644-1653 (2008), each of which is hereby incorporated by reference in its entirety). RAW264.7 cells were cultured in α-MEM medium supplemented with 10% FBS. Mouse embryo fibroblasts (“MEFs”) were prepared from day 14 embryos as previously described (Kamijo et al., “Tumor Suppression at the Mouse INK4a Locus Mediated by the Alternative Reading Frame Product p19ARF,” Cell 91:649-659 (1997), which is hereby incorporated by reference in its entirety). MEFs with less than four passages were used for the experiments described here. […]

[3] = biological target: T2, Ubc13-Uev1A complex (Homo sapiens, UniProt P61088); assay: GST pull-down, in vitro interaction between Ubc13 and Uev1A; type: binding; conditions: GST-Ubc13, OCI-Ly10 cell extract
T2 construct: made in house; host or cells: E. coli BL21 (GST-Ubc13); OCI-Ly10 cell lysate (Uev1A)
T2 sequence (P61088 whole entry): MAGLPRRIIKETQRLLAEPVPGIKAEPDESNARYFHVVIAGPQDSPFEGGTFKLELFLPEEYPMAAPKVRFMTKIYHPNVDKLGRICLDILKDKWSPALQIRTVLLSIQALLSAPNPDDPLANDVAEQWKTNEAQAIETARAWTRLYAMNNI
T2 sequence (Q13404 whole entry partner): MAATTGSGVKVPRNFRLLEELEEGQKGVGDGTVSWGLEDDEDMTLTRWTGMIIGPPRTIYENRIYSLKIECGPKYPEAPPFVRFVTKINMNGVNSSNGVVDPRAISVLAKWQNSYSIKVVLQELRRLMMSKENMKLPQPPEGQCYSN
Experimental: as §1, with “analysis. […]” for “analysis.”
GST-Ubc13 bound on glutathione-agarose beads was incubated with cell lysates prepared from OCI-Ly10 cells, with or without the presence of NSC697923, at 4° C. for 1 hour. […] The amounts of GST-Ubc13 and Uev1A proteins bound to the beads were then analyzed by western blotting.

T1 sequence (P61077 whole entry): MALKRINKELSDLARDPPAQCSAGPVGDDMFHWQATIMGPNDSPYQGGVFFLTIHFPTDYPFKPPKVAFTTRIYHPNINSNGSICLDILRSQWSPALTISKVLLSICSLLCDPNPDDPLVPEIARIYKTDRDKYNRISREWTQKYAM

Structure (SMILES): Cc1ccc(S(=O)(=O)c2ccc([N+](=O)[O-])o2)cc1 [NSC697923, 2-nitro-5-tosylfuran]
- formation of UbcH5c~Ub conjugate [1]: is not inhibited
- IκBα phosphorylation by LPS [2]: inhibited
- complex formation between Ubc13 and Uev1A [3]: no inhibitory effect
